“And” between values parts separate entries of the source, which are not always exact repeats. Equal values may be shown once. Read-outs that look alike come from different tables or passages of the source. Blank lines part the entries; values can stand above or below the compound they belong to.
Columns and labels:
[1] = target: recombinant AplaCSP4 (Agrilus planipennis chemosensory protein 4) (Agrilus planipennis, UniProt A0A1W4XLL0); assay: biochemical; assay type: binding; details: for Competitive binding capability(%) / activity at 2 µM / activity at 4 µM / activity at 6 µM / activity at 8 µM / activity at 10 µM / activity at 12 µM: three replicate columns, 100 at 0 μM
Experimental: Specifically, the binding affinities of AplaCSP4 for 43 volatile organic compounds were determined using F-380 fluorescence spectrophotometer (Tianjin, China) with a 10 nm slits and a 1 cm light path. These 43 substances are common green leaf volatiles, among which 16 volatiles originate from the ash tree. […]

Mythimna separata = test system: Mythimna separata; design: method as in Younas et al., 2022; details: ref Younas et al., 2022; cited from earlier work
Phyllotreta cruciferae = test system: Phyllotreta cruciferae; design: method as in Cáceres et al., 2016; Sun et al., 2016; details: ref Cáceres et al., 2016, Sun et al.; cited from earlier work
Cnaphalocrocis medinalis = test system: Cnaphalocrocis medinalis; design: method as in Cáceres et al., 2016; Sun et al., 2016; details: ref Cáceres et al., 2016, Sun et al.; cited from earlier work
[2] = ligand concentration 2 μM, 2 µM
[3] = ligand concentration 4 μM, 4 µM
[4] = ligand concentration 6 μM, 6 µM
[5] = ligand concentration 8 μM, 8 µM
[6] = ligand concentration 10 μM, 10 µM
[7] = ligand concentration 12 μM, 12 µM

Sequence of recombinant AplaCSP4 (Agrilus planipennis chemosensory protein 4) (A0A1W4XLL0 entry or part of it): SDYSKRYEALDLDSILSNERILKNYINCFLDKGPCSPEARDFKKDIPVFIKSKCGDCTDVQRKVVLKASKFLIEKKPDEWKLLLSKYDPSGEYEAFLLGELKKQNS

binding to AplaCSP4 (in words) ([1]; discussion of fluorescence competitive binding results): particularly high binding affinity
Competitive binding capability(%) [1, 2]: 51.463% and 50.752%
Competitive binding capability(%) [1, 3]: 34.5446% and 32.1031%
Competitive binding capability(%) [1, 4]: 25.4151% and 25.0577%
Competitive binding capability(%) [1, 5]: 20.9595% and 20.5391%
Competitive binding capability(%) [1, 6]: 17.6278% and 17.3179%
Competitive binding capability(%) [1, 7]: 15.4258% and 15.6099%
activity at 2 µM ([1]; pH 7.4, ligand concentration 2 μM, read-out: Competitive binding capability(%)): 49.2%
activity at 4 µM ([1]; pH 7.4, ligand concentration 4 μM, read-out: Competitive binding capability(%)): 35.3%
activity at 6 µM ([1]; pH 7.4, ligand concentration 6 μM, read-out: Competitive binding capability(%)): 25.6%
activity at 8 µM ([1]; pH 7.4, ligand concentration 8 μM, read-out: Competitive binding capability(%)): 21.1%
activity at 10 µM ([1]; pH 7.4, ligand concentration 10 μM, read-out: Competitive binding capability(%)): 17.9%
activity at 12 µM ([1]; pH 7.4, ligand concentration 12 μM, read-out: Competitive binding capability(%)): 16.1%
Kd ([1]; read-out: K D ±SE (dissociation constant)): 1380 ± 30 nM
SMILES: C=CC(C)(O)CCC=C(C)CCC=C(C)C (mixture of isomers) [Nerolidol]
attractive activity (Mythimna separata): attractive activity

Kd [1]: 4230 ± 70 nM
Competitive binding capability(%) [1, 2]: 74.4951% and 75.2037%
Competitive binding capability(%) [1, 3]: 60.2358% and 60.8061%
Competitive binding capability(%) [1, 4]: 50.2199% and 51.0303%
Competitive binding capability(%) [1, 5]: 42.8154% and 43.7153%
Competitive binding capability(%) [1, 6]: 37.3498% and 38.224%
Competitive binding capability(%) [1, 7]: 33.5198% and 33.2165%
activity at 2 µM ([1]; pH 7.4, read-out: Competitive binding capability(%), ligand concentration 2 μM): 75.8%
activity at 4 µM ([1]; pH 7.4, read-out: Competitive binding capability(%), ligand concentration 4 μM): 61.2%
activity at 6 µM ([1]; pH 7.4, read-out: Competitive binding capability(%), ligand concentration 6 μM): 51.9%
activity at 8 µM ([1]; pH 7.4, read-out: Competitive binding capability(%), ligand concentration 8 μM): 45%
activity at 10 µM ([1]; pH 7.4, read-out: Competitive binding capability(%), ligand concentration 10 μM): 38.5%
activity at 12 µM ([1]; pH 7.4, read-out: Competitive binding capability(%), ligand concentration 12 μM): 34.6%
SMILES: CC(=O)/C=C/C1=C(C)CCCC1(C)C [β-Ionone]
repellent activity (Phyllotreta cruciferae): repellent activity
repellent activity (Cnaphalocrocis medinalis): repellent activity
